Experimental data published in patent publication US20230165867A1 (CHENGDU BAIYU PHARMACEUTICAL CO., LTD., priority 2020, published 2023).
Like-named read-outs stand apart in the source and are kept apart here.

What was measured:
[1] = Pharmacokinetic assay in ICR mice (i.v. and p.o.); assay type: in vivo; details: mouse, plasma, male ICR mice; for half-life: read-out: T½ (converted); for bioavailability: po 10 mg/kg vs iv 1 mg/kg
Experimental: ICR mice were purchased from Beijing Vital River Laboratory Animal Technology Co., Ltd.
3.2 Experimental procedure • (1) Healthy male ICR mice (18-22 g) were prepared, with 18 mice for each compound. The mice were divided into 2 groups (an i.v. group and a p.o. group), with 9 mice per group. 3 mice were picked for blood collection at each time point. • (2) After the animals were fasted overnight (with free access to water), the compound of the present invention dissolved (or suspended) in a solvent of 5% DMSO and 95% 30% HP-β-CD (v:v) was administered via the tail vein (i.v., 1 mg/kg) or intragastrically (p.o., 10 mg/kg), respectively. • (3) For the i.v. group, 0.1 mL blood was collected from the submandibular vein 5 min, 15 min, 0.5 h, 1 h, 2 h, 4 h, 8 h, 12 h, and 24 h after administration, respectively, anticoagulated with EDTA-K2, and centrifuged at 4° C. for 5 min to obtain plasma, which was stored at -20° C. until testing. (4) For the p.o. group, 0.1 mL blood was collected from the submandibular vein before administration and 15 min, 0.5 h, 1 h, 2 h, 4 h, 6 h, 8 h, 12 h, and 24 h after administration, and treated in the same manner as that for the intravenous group. • (5) The concentration of the compound of the present invention in plasma was measured by LC/MS/MS. • (6) Calculation and fitting were performed with Analyst 1.6 from AB Company, and the results are shown in Table 3.

[2] = biological target: T1, DNA-PK kinase (Homo sapiens, UniProt P78527); assay: Inhibition assay of DNA-PK kinase (Promega kit, ADP-Glo chemiluminescence); assay type: biochemical; details: 50 µM ATP, 37° C., 60 min; read-out: IC50 (nM), inhibitory activity on DNA-PK kinase
T1 construct: purchased Promega V4107
Experimental: The inhibitory activity of the compounds on DNA-PK kinase was measured by using a DNA-PK kinase assay kit (purchased from Promega, Cat.#: V4107, Lot: 0000366495). The results were quantified by chemiluminescence, and the detailed experimental protocol was as follows: • i. An ADP-fluorescence standard curve over a range of concentrations was plotted according to the kit instructions; • ii. […] The mixtures were mixed well, centrifuged (1000 rpm, 30 s), and incubated at 37° C. for 60 min; • iv. 5 µL of ADP-Glo™ Reagent was added to stop the reaction, which was then mixed well, centrifuged (1000 rpm, 30 s), and incubated at room temperature for 40 min; • v. 10 µL Kinase Detection Reagent was added, and the mixture was mixed well by shaking, centrifuged (1000 rpm, 30 s), and incubated at room temperature for 30 min; • vi. The […] was measured by using a microplate reader (Thermo fisher, Varioskan LUX).

| Compound | IC50 [2] [nM] | also measured |
| --- | --- | --- |
| [2H]C([2H])([2H])n1c(=O)n(C2CCOCC2)c2nc(Nc3ccc(C#N)cc3C)ncc21 (single isomer, unassigned) [Compound 6, 3-Methyl-4-((7-(methyl-d3)-8-oxo-9-(tetrahydro-2H-pyran-4-yl)-8,9-dihydro-7H-purin-2-yl)amino)benzonitrile] | – | AUC ([1]; iv, 1 mg/kg): 82.4 ng·h/mL; half-life ([1]; iv, 1 mg/kg): 17.9 min; bioavailability [1]: 179%; AUC ([1]; po, 10 mg/kg): 1480 ng·h/mL; Cmax ([1]; po, 10 mg/kg): 1220 ng/mL; half-life ([1]; po, 10 mg/kg): 57.8 min |
| Cc1cc(S(C)(=O)=O)ccc1Nc1ncc2c(n1)n(C1CCOCC1)c(=O)n2C [Compound 1, 7-Methyl-2-((2-methyl-4-(methylsulfonyl)phenyl)amino)-9-(tetrahydro-2H-pyran-4-yl)-7,9-dihydro-8H-purin-8-one] | 10.1 | – |
| Cc1cc(C(F)(F)F)ccc1Nc1ncc2c(n1)n(C1CCOCC1)c(=O)n2C [Compound 3, 7-Methyl-2-((2-methyl-4-(trifluoromethyl)phenyl)amino)-9-(tetrahydro-2H-pyran-4-yl)-7,9-dihydro-8H-purin-8-one] | 18.6 | – |
| Cc1cc(Cl)ccc1Nc1ncc2c(n1)n(C1CCOCC1)c(=O)n2C [Compound 4, 2-((4-chloro-2-methylphenyl)amino)-7-methyl-9-(tetrahydro-2H-pyran-4-yl)-7,9-dihydro-8H-purin-8-one] | 8.3 | – |
| Cc1cc(F)ccc1Nc1ncc2c(n1)n(C1CCOCC1)c(=O)n2C [Compound 7, 2-((4-fluoro-2-methylphenyl)amino)-7-methyl-9-(tetrahydro-2H-pyran-4-yl)-7,9-dihydro-8H-purin-8-one] | 5.47 | – |
| Cc1ccc(C#N)cc1Nc1ncc2c(n1)n(C1CCOCC1)c(=O)n2C [Compound 15, 4-Methyl-3-((7-methyl-8-oxo-9-(tetrahydro-2H-pyran-4-yl)-8,9-dihydro-7H-purin-2-yl)amino)benzonitrile] | 5.28 | – |
| Cc1cc(C#N)ncc1Nc1ncc2c(n1)n(C1CCOCC1)c(=O)n2C [Compound 17, 4-Methyl-5-((7-methyl-8-oxo-9-(tetrahydro-2H-pyran-4-yl)-8,9-dihydro-7H-purin-2-yl)amino)picolinonitrile] | 28.7 | – |
| COc1ccc(Nc2ncc3c(n2)n(C2CCOCC2)c(=O)n3C)c(C)n1 [Compound 21] | 53 | – |
| COC(=O)c1cc(Nc2ncc3c(n2)n(C2CCOCC2)c(=O)n3C)c(C)s1 [Compound 22] | 1.36 | – |
| Cc1cc(C(=O)NC(C)C)ccc1Nc1ncc2c(n1)n(C1CCOCC1)c(=O)n2C [Compound 30, N-Isopropyl-3-methyl-4-((7-methyl-8-oxo-9-(tetrahydro-2H-pyran-4-yl)-8,9-dihydro-7H-purin-2-yl)amino)benzamide] | 66.6 | – |
| Cc1cc(C(=O)NC2CC2)ccc1Nc1ncc2c(n1)n(C1CCOCC1)c(=O)n2C [Compound 31, N-Cyclopropyl-3-methyl-4-((7-methyl-8-oxo-9-(tetrahydro-2H-pyran-4-yl)-8,9-dihydro-7H-purin-2-yl)amino)benzamide] | 31 | – |
| CNC(=O)c1cc(C)c(Nc2ncc3c(n2)n(C2CCOCC2)c(=O)n3C)cc1F [Compound 36, 2-Fluoro-N,5-dimethyl-4-((7-methyl-8-oxo-9-(tetrahydro-2H-pyran-4-yl)-8,9-dihydro-7H-purin-2-yl)amino)benzamide] | 17.9 | – |
| [2H]C([2H])([2H])NC(=O)c1cc(C)c(Nc2ncc3c(n2)n(C2CCOCC2)c(=O)n3C)cc1F [Compound 37, 2-Fluoro-5-methyl-N-(methyl-d3)-4-((7-methyl-8-oxo-9-(tetrahydro-2H-pyran-4-yl)-8,9-dihydro-7H-purin-2-yl)amino)benzamide] | 11.9 | – |
| Cc1[nH]c(=O)ccc1Nc1ncc2c(n1)n(C1CCOCC1)c(=O)n2C [Compound 40] | 39.2 | – |
| Cc1sc(C(=O)O)cc1Nc1ncc2c(n1)n(C1CCOCC1)c(=O)n2C [Compound 41] | – | AUC ([1]; iv, 1 mg/kg): 357 ng·h/mL; half-life ([1]; iv, 1 mg/kg): 33 min; bioavailability [1]: 42.3%; AUC ([1]; po, 10 mg/kg): 1500 ng·h/mL; Cmax ([1]; po, 10 mg/kg): 2710 ng/mL; half-life ([1]; po, 10 mg/kg): 293 min |

Second part, led by results:

| IC50 [2] [nM] | Compound | also measured |
| --- | --- | --- |
| 9.8 | Cc1sc(C#N)cc1Nc1ncc2c(n1)n(C1CCOCC1)c(=O)n2C [Compound 43, 5-Methyl-4-((7-methyl-8-oxo-9-(tetrahydro-2H-pyran-4-yl)-8,9-dihydro-7H-purin-2-yl)amino)thiophene-2-carbonitrile] | – |
| 13.5 | COC(=O)c1cc(C)c(Nc2ncc3c(n2)n(C2CCOCC2)c(=O)n3C)cc1C#N [Compound 45] | – |
| 0.99 | Cc1cc(C(=O)O)c(C#N)cc1Nc1ncc2c(n1)n(C1CCOCC1)c(=O)n2C [Compound 46, 2-cyano-5-methyl-4-((7-methyl-8-oxo-9-(tetrahydro-2H-pyran-4-yl)-8,9-dihydro-7H-purin-2-yl)amino)benzoic acid] | – |
| 3.69 | Cc1cc(C(N)=O)c(C#N)cc1Nc1ncc2c(n1)n(C1CCOCC1)c(=O)n2C [Compound 47, 2-cyano-5-methyl-4-((7-methyl-8-oxo-9-(tetrahydro-2H-pyran-4-yl)-8,9-dihydro-7H-purin-2-yl)amino)benzamide] | – |
| 12.7 | Cc1cc(C(N)=O)c(O)cc1Nc1ncc2c(n1)n(C1CCOCC1)c(=O)n2C [Compound 50, 2-Hydroxy-5-methyl-4-((7-methyl-8-oxo-9-(tetrahydro-2H-pyran-4-yl)-8,9-dihydro-7H-purin-2-yl)amino)benzamide] | – |
| 34.1 | COC(=O)c1cc(C)c(Nc2ncc3c(n2)n(C2CCOCC2)c(=O)n3C)cc1F [Compound 51] | – |
| 14.8 | Cc1cc(=O)[nH]cc1Nc1ncc2c(n1)n(C1CCOCC1)c(=O)n2C [Compound 55, 7-Methyl-2-((4-methyl-6-oxo-1,6-dihydropyridin-3-yl)amino)-9-(tetrahydro-2H-pyran-4-yl)-7,9-dihydro-8H-purin-8-one] | – |
| 14.3 | Cc1cc(=O)n(C)cc1Nc1ncc2c(n1)n(C1CCOCC1)c(=O)n2C [Compound 56, 2-((1,4-Dimethyl-6-oxo-1,6-dihydropyridin-3-yl)amino)-7-methyl-9-(tetrahydro-2H-pyran-4-yl)-7,9-dihydro-8H-purin-8-one] | – |
| 12.1 | Cn1c(=O)n(C2CCOCC2)c2nc(Nc3cc(F)c(C(N)=O)cc3Cl)ncc21 [Compound 59, 5-Chloro-2-fluoro-4-((7-methyl-8-oxo-9-(tetrahydro-2H-pyran-4-yl)-8,9-dihydro-7H-purin-2-yl)amino)benzamide] | – |
| 29.7 | Cc1cc(C(N)=O)c(F)c(C)c1Nc1ncc2c(n1)n(C1CCOCC1)c(=O)n2C [Compound 60, 2-Fluoro-3,5-dimethyl-4-((7-methyl-8-oxo-9-(tetrahydro-2H-pyran-4-yl)-8,9-dihydro-7H-purin-2-yl)amino)benzamide] | – |
| 50.5 | Cc1cc(C(N)=O)c(F)cc1Nc1ncc2c(n1)n(C1CCOCC1)c(=O)n2C(C)C [Compound 63, 2-Fluoro-4-((7-isopropyl-8-oxo-9-(tetrahydro-2H-pyran-4-yl)-8,9-dihydro-7H-purin-2-yl)amino)-5-methylbenzamide] | – |
| 3.34 | Cc1cc(C(N)=O)c(F)cc1Nc1ncc2c(n1)n(C1CCOCC1)c(=O)n2C1CC1 [Compound 64, 4-((7-cyclopropyl-8-oxo-9-(tetrahydro-2H-pyran-4-yl)-8,9-dihydro-7H-purin-2-yl)amino)-2-fluoro-5-methylbenzamide] | – |
| 2.96 | Cc1cc(C(N)=O)c(F)cc1Nc1ncc2c(n1)n(C1CCC(O)C1)c(=O)n2C (stereo not shown) [Compound 67, 2-Fluoro-4-((9-(3-hydroxycyclopentyl)-7-methyl-8-oxo-8,9-dihydro-7H-purin-2-yl)amino)-5-methylbenzamide] | – |
| 0.01 | Cc1cc(C(N)=O)c(F)cc1Nc1ncc2c(n1)n(C1CCCCC1)c(=O)n2C [Compound 68, 4-((9-cyclohexyl-7-methyl-8-oxo-8,9-dihydro-7H-purin-2-yl)amino)-2-fluoro-5-methylbenzamide] | – |
| 4.14 | CO[C@H]1CC[C@@H](n2c(=O)n(C)c3cnc(Nc4cc(F)c(C(N)=O)cc4C)nc32)CC1 [Compound 70, 2-Fluoro-4-((9-(cis-4-methoxycyclohexyl)-7-methyl-8-oxo-8,9-dihydro-7H-purin-2-yl)amino)-5-methylbenzamide] | – |
